Where “and” joins values, the source holds several entries; their conditions need not be identical. Equal entries are not always repeated.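 1) Cells in 96-well plates. 2) Compound, 48 h, 5 concentrations. 3) Linear interpolation between surrounding doses. 4) Unreached endpoint = highest concentration. GI50 is the concentration that inhibits growth by half. TGI: concentration producing complete growth inhibition.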
Assays:
Assay in all cases: inhibition of tumour cell growth, NCI panel, 48 h
[1] = test system: 786-0 renal
[2] = test system: A498 renal
[3] = test system: ACHN renal
[4] = test system: IGROV1 ovarian
[5] = test system: OVCAR-3 ovarian
[6] = test system: SK-MEL-28 melanoma
[7] = test system: SNB-75 CNS
[8] = test system: DU-145 prostate
[9] = test system: SK-MEL-5 melanoma
[10] = test system: RPMI-8226 leukemia

Row | SMILES | TGI [1] | TGI [2] | TGI [3] | TGI [4] | TGI [5] | TGI [6] | TGI [7] | TGI [8] | TGI [9] | GI50 [1] | GI50 [3] | GI50 [8] | GI50 [4] | GI50 [5] | GI50 [10] | TGI [10] | GI50 [6] | GI50 [9] | GI50 [7] | GI50 [2]
1 | O=C1C=C(c2ccccc2)NC1(c1ccccc1)c1cc(-c2ccccc2)[nH]c1-c1ccccc1 (stereo unspecified) | > 100 µM | > 100 µM | > 100 µM | > 100 µM | > 100 µM | > 100 µM | > 100 µM | – | – | – | – | – | – | – | – | – | – | – | – | –
2 | CN(COC(=O)C(C)(C)C)c1nc(N(C)COC(=O)C(C)(C)C)nc(N(C)COC(=O)C(C)(C)C)n1 | > 100 µM | > 100 µM | > 100 µM | > 100 µM | > 100 µM | > 100 µM | > 100 µM | > 100 µM | > 100 µM | – | – | – | – | – | – | – | – | – | – | –
3 | CCOC(=O)CCC(NC(=O)c1ccc(Oc2nc3cc(N)cc(N)c3nc2-c2ccccc2)cc1)C(=O)OCC (stereo unspecified) | > 100 µM | – | > 100 µM | 78.7 µM | 41.2 µM | 30.5 µM | – | > 100 µM | 53.8 µM | 89 µM | 28.5 µM | 62.2 µM | 18.2 µM | 16.2 µM | > 100 µM | > 100 µM | 14.3 µM | 18 µM | – | –
4 | COc1cc(Br)c(/C=N/N=C(\N)NO)cc1OC | 92.8 µM | 78.9 µM | 50.6 µM | > 100 µM | > 100 µM | > 100 µM | 65.9 µM | – | 21.2 µM | – | – | – | – | – | – | > 100 µM | – | – | – | –
5 | O=S(=O)(c1ccccc1)C1(C2(S(=O)(=O)c3ccccc3)CCN=N2)CCN=N1 (stereo unspecified) | > 100 µM | – | > 100 µM | > 100 µM | > 100 µM | > 100 µM | > 100 µM | – | – | – | – | – | – | – | – | > 100 µM | – | – | – | –
6 | O=[N+]([O-])C(=C1c2ccccc2-c2ccccc21)[N+](=O)[O-] | > 100 µM | > 100 µM | > 100 µM | > 100 µM | > 100 µM | > 100 µM | – | – | – | – | – | – | – | – | – | > 100 µM | – | – | – | –
7 | C=CCC(NCc1ccccc1)c1cn(C(=O)OCC)c2ccccc12 (stereo unspecified) | 38.8 µM | – | 36.5 µM | 71.7 µM | 33.7 µM | > 100 µM | > 100 µM | 60.7 µM | 28 µM | 18.7 µM | 18.5 µM | 20.8 µM | 18.5 µM | 17.3 µM | 13.1 µM | 35.8 µM | 41.5 µM | 13.9 µM | 43.1 µM | –
8 | COc1cc(Br)c(C=Nc2cccc3ccc(OS(=O)(=O)c4ccc([N+](=O)[O-])cc4)cc23)cc1OC | > 100 µM | > 100 µM | > 100 µM | > 100 µM | > 100 µM | > 100 µM | – | – | > 100 µM | – | – | – | – | – | – | > 100 µM | – | – | – | –
9 | Cc1ccccc1-c1cc(=O)c2cc(C)c(C)c(C(=O)O)c2o1 | > 100 µM | – | > 100 µM | > 100 µM | > 100 µM | > 100 µM | > 100 µM | – | > 100 µM | – | – | – | – | – | – | > 100 µM | – | – | – | –
10 | COc1ccc(-c2cc(-c3ccco3)c(C#N)c(=O)n2C2OC(COC(C)=O)C(OC(C)=O)C(OC(C)=O)C2OC(C)=O)cc1 (stereo unspecified) | > 100 µM | > 100 µM and 75.8 µM | > 100 µM | > 100 µM and 94.4 µM | > 100 µM and 44.3 µM | > 100 µM | > 100 µM | – | > 100 µM | > 100 µM and 29.3 µM | > 100 µM and 31.1 µM | – | > 100 µM and 12.9 µM | > 100 µM and 18.1 µM | – | > 100 µM | > 100 µM and 26.7 µM | – | – | > 100 µM and 22 µM
11 | CC1(C)CCOC(Sc2ccccc2)C1 (stereo unspecified) | > 100 µM | > 100 µM | > 100 µM | > 100 µM | > 100 µM | > 100 µM | > 100 µM | – | 52.9 µM | – | – | – | – | – | – | 91.3 µM | – | – | – | –
12 | O=S(=O)([O-])c1ccc(C=Nc2ccccc2)c([O-])c1.O=S(=O)([O-])c1ccc(C=Nc2ccccc2)c([O-])c1.[Co+2] | > 100 µM | – | > 100 µM | > 100 µM | > 100 µM | > 100 µM | > 100 µM | – | – | 94.7 µM | 48.1 µM | – | > 100 µM | > 100 µM | > 100 µM | > 100 µM | > 100 µM | – | > 100 µM | –
13 | COC(=O)N1C=CC2=C(C)C3Nc4ccccc4C3C(C)=C2C1 (stereo unspecified) | 2.16 µM | > 100 µM | 5.01 µM | > 100 µM | 3.69 µM | > 100 µM | 9.54 µM | – | 37.2 µM | – | – | – | – | – | – | 5.87 µM | – | – | – | –
14 | CC[P+](C)(C)CC | > 100 µM | – | > 100 µM | > 100 µM | > 100 µM | > 100 µM | > 100 µM | – | > 100 µM | – | – | – | – | – | – | > 100 µM | – | – | – | –
15 | CCOC(=O)C(c1ccsc1)P(=O)(OCC)OCC (stereo unspecified) | 31.7 µM | – | 53 µM | – | 26.9 µM | 32.4 µM | 43.5 µM | – | 29.4 µM | – | – | – | – | – | – | > 100 µM | – | – | – | –
16 | Nc1ncnc2c1ncn2C1(CO)OC(CO)C(O)C1O (stereo unspecified) | > 100 µM | > 100 µM | > 100 µM | – | – | > 100 µM | > 100 µM | – | > 100 µM | – | – | – | – | – | – | > 100 µM | – | – | – | –
17 | CC(C)CC1CC2C(=O)N(c3ccccc3)C(=O)C2c2[nH]c3ccccc3c21 (stereo unspecified) | > 100 µM | > 51.3 µM | > 87.7 µM | 61.9 µM | 42.7 µM | > 55.7 µM | 30.6 µM | – | > 100 µM | – | – | – | – | – | – | > 100 µM | – | – | – | –
18 | CN1C=C(C(N)=O)Cc2ccsc21 | > 100 µM | – | > 100 µM | > 100 µM | > 100 µM | > 100 µM | > 100 µM | – | > 100 µM | – | – | – | – | – | – | > 100 µM | – | – | – | –
19 | Oc1ccc(Br)cc1C=Nc1ccc(Oc2ccc(N=Cc3cc(Br)ccc3O)cc2)cc1 | > 19.6 µM | > 19.6 µM | > 19.6 µM | > 19.6 µM | > 19.6 µM | > 19.6 µM | > 19.6 µM | – | > 19.6 µM | – | – | – | – | – | – | > 19.6 µM | – | – | – | –
20 | CN(C)c1ccc(-c2nc(N)nc3c2CCCC3)cc1 | > 100 µM | > 100 µM | 76.9 µM | > 100 µM | 96.7 µM | > 100 µM | > 100 µM | – | > 100 µM | – | – | – | – | – | – | > 100 µM | – | – | – | –
21 | N/N=C1\C(=O)N(c2ccc(Cl)c(Cl)c2)C(=O)C1C(=O)Nc1ccc(Cl)c(Cl)c1 (stereo unspecified) | > 100 µM | > 100 µM | > 100 µM | > 100 µM | > 100 µM | > 100 µM | > 100 µM | – | 69.6 µM | – | – | – | – | – | – | > 100 µM | – | – | – | –
22 | Cc1ccc(C)c(NC(=O)C(=O)C(C2C(C)CC(=O)C2CC(=O)O)[N+](=O)[O-])c1 (stereo unspecified) | > 100 µM | > 100 µM | > 100 µM | > 100 µM | > 100 µM | > 100 µM | > 100 µM | – | > 100 µM | – | – | – | – | – | – | > 100 µM | – | – | – | –
